Laboratory results as given in the supplement of paper PMC10307832.

Columns and labels:
Assay in all cases: relative viability (nuclei count vs DMSO), 5 days (fraction); higher = more cells survive
Vemurafenib + Alpelisib = compound: CCCS(=O)(=O)Nc1ccc(F)c(C(=O)c2c[nH]c3ncc(-c4ccc(Cl)cc4)cc23)c1F [Vemurafenib] + Cc1nc(NC(=O)N2CCC[C@H]2C(N)=O)sc1-c1ccnc(C(C)(C)C(F)(F)F)c1 [Alpelisib] (partner 2 µM)
Outline: (§1)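 A single step with final 0.05% Triton X-100, 1% formaldehyde and 1 ug/ml Hoechst fixed the cells and stained nuclei 5 days after treatment. Lung cancer cell lines in 1536-well plates had been treated by pin tool the day after seeding with one drug alone or a fixed anchor-drug dose plus five library-drug doses (not always all listed) in √10 steps, and nuclei were counted on 4× images. Relative viability is the ratio of nuclei in treated wells to nuclei in vehicle wells, taken as the median of duplicate plates.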

OSI-027 + Linsitinib = compound: COc1cccc2cc(-c3nc([C@H]4CC[C@H](C(=O)O)CC4)n4ncnc(N)c34)[nH]c12 [OSI-027] + C[C@]1(O)C[C@@H](c2nc(-c3ccc4ccc(-c5ccccc5)nc4c3)c3c(N)nccn32)C1 [Linsitinib] (partner 1 µM)
Outline: as §1

OSI-027 + Pemetrexed = compound: COc1cccc2cc(-c3nc([C@H]4CC[C@H](C(=O)O)CC4)n4ncnc(N)c34)[nH]c12 [OSI-027] + Nc1nc2[nH]cc(CCc3ccc(C(=O)N[C@@H](CCC(=O)O)C(=O)O)cc3)c2c(=O)[nH]1 [Pemetrexed] (partner 0.2 µM)
Outline: as §1

Alpelisib + Decitabine = compound: Cc1nc(NC(=O)N2CCC[C@H]2C(N)=O)sc1-c1ccnc(C(C)(C)C(F)(F)F)c1 [Alpelisib] + Nc1ncn([C@H]2C[C@H](O)[C@@H](CO)O2)c(=O)n1 [Decitabine] (partner 2 µM)
Outline: as §1

Row | Cell Line | relative viability (Vemurafenib + Alpelisib; first compound 0.03162 µM) | relative viability (Vemurafenib + Alpelisib; first compound 0.1 µM) | relative viability (Vemurafenib + Alpelisib; first compound 0.3162 µM) | relative viability (Vemurafenib + Alpelisib; first compound 1 µM) | relative viability (OSI-027 + Linsitinib; first compound 0.01 µM) | relative viability (OSI-027 + Linsitinib; first compound 0.03162 µM) | relative viability (OSI-027 + Linsitinib; first compound 0.1 µM) | relative viability (OSI-027 + Linsitinib; first compound 0.3162 µM) | relative viability (OSI-027 + Linsitinib; first compound 1 µM) | relative viability (OSI-027 + Pemetrexed; first compound 0.01 µM) | relative viability (OSI-027 + Pemetrexed; first compound 0.03162 µM) | relative viability (OSI-027 + Pemetrexed; first compound 0.1 µM) | relative viability (OSI-027 + Pemetrexed; first compound 0.3162 µM) | relative viability (OSI-027 + Pemetrexed; first compound 1 µM) | relative viability (Alpelisib + Decitabine; first compound 0.04 µM) | relative viability (Alpelisib + Decitabine; first compound 0.1265 µM) | relative viability (Alpelisib + Decitabine; first compound 0.4 µM) | relative viability (Alpelisib + Decitabine; first compound 1.265 µM) | relative viability (Alpelisib + Decitabine; first compound 4 µM)
1 | NCI-H23 | 0.626 | 0.642 | 0.912 | 0.664 | 0.517 | 0.549 | 0.452 | 0.237 | 0.212 | 0.617 | 0.757 | 0.598 | 0.47 | 0.395 | 0.322 | 0.276 | 0.327 | 0.28 | 0.198
2 | NCI-H322M | 0.845 |  | 0.872 | 0.707 | 0.805 | 0.778 | 0.787 | 0.589 | 0.868 | 0.602 | 0.608 | 0.633 | 0.556 | 0.519 | 0.722 | 0.707 | 0.721 | 0.627 | 0.529
3 | NCI-H358 | 0.872 |  | 1.16 | 0.809 | 0.676 | 0.503 | 0.671 | 0.376 | 0.366 | 0.185 | 0.171 | 0.176 | 0.132 | 0.151 | 0.194 | 0.195 | 0.205 | 0.178 | 0.169
4 | NCI-H441 | 0.791 | 0.741 |  | 0.534 | 0.643 | 0.452 | 0.399 | 0.387 | 0.206 | 0.259 | 0.213 | 0.285 | 0.255 | 0.251 | 0.244 | 0.215 | 0.271 | 0.22 | 0.224
5 | NCI-H460 | 0.349 | 0.357 | 0.631 | 0.593 | 0.95 | 0.34 | 0.627 | 0.186 | 0.105 | 0.0613 | 0.0659 | 0.0561 | 0.0523 | 0.0728 | 0.496 | 0.571 | 0.436 | 0.442 | 0.291
6 | NCI-H520 | 0.979 | 1.05 | 0.94 | 0.793 | 1.08 | 0.931 | 0.888 | 0.614 | 0.311 | 0.785 | 0.645 | 0.596 | 0.487 | 0.263 | 0.422 | 0.531 | 0.481 | 0.442 | 0.412
7 | NCI-H596 | 0.526 | 0.48 | 0.475 | 0.42 | 0.981 | 0.978 | 1.03 | 0.779 | 0.483 | 0.436 | 0.576 | 0.463 | 0.475 | 0.504 | 1 | 0.954 | 1.01 | 0.699 | 0.61
8 | NCI-H647 | 0.898 | 1.12 | 0.995 | 0.891 | 1.29 | 1.2 | 0.944 | 0.855 | 0.496 | 0.159 | 0.173 | 0.187 | 0.157 | 0.211 | 0.423 | 0.497 | 0.537 | 0.306 | 0.35
9 | NCI-H650 | 0.954 | 1.12 | 0.621 | 0.781 | 0.701 | 0.892 | 0.492 | 0.442 | 0.334 | 0.878 | 1.03 | 0.836 | 0.671 | 0.367 | 0.352 | 0.324 | 0.327 | 0.318 | 0.284
10 | NCI-H661 | 0.43 | 0.478 | 0.409 | 0.58 | 0.511 | 0.334 | 0.521 | 0.364 | 0.269 | 0.886 | 0.941 | 0.934 | 0.882 | 0.631 | 0.56 | 0.586 | 0.576 | 0.474 | 0.495
11 | NCI-H838 | 0.879 | 0.957 |  | 1.04 | 0.819 | 0.584 | 0.456 | 0.305 | 0.254 | 0.245 | 0.255 | 0.249 | 0.234 | 0.214 | 0.405 | 0.422 | 0.508 | 0.438 | 0.359
12 | NCI-H1355 | 0.823 | 0.689 | 0.797 | 0.88 | 0.759 | 0.687 | 0.643 | 0.374 | 0.218 | 1.07 | 1.06 | 1 | 0.777 | 0.572 | 0.41 | 0.386 | 0.328 | 0.328 | 0.297
13 | NCI-H1395 | 1.01 | 1.01 |  | 1.09 | 1.18 | 1.16 | 0.924 | 0.857 | 0.77 | 0.736 | 0.826 | 0.643 | 0.74 | 0.74 | 0.747 | 0.699 | 0.75 | 0.645 | 0.65
14 | NCI-H1437 | 0.915 | 0.96 | 0.842 | 0.901 | 0.962 | 0.6 | 0.702 | 0.292 | 0.155 | 0.357 | 0.348 | 0.26 | 0.259 | 0.24 | 0.562 | 0.579 | 0.609 | 0.527 | 0.527
15 | NCI-H1651 | 0.903 | 0.831 | 0.896 | 0.909 | 0.938 |  | 0.801 | 0.514 | 0.285 | 0.54 | 0.575 | 0.532 | 0.57 | 0.523 | 0.625 | 0.557 | 0.703 | 0.598 | 0.439
16 | NCI-H1666 | 0.872 |  | 1.07 | 0.965 | 0.775 | 0.536 | 0.459 | 0.337 | 0.39 | 0.853 | 0.905 | 0.832 | 0.831 | 0.787 | 0.686 | 0.708 | 0.781 | 0.694 | 0.612
17 | NCI-H1734 | 0.598 | 0.7 | 0.602 | 0.603 | 0.937 | 0.794 | 0.809 | 0.656 | 0.309 | 0.416 | 0.436 | 0.371 | 0.412 | 0.386 | 0.532 | 0.478 | 0.497 | 0.477 | 0.255
